How the values were obtained:
COLO205 xenograft tumors = test: Tumor growth inhibition in COLO205 xenograft tumors; type: in vivo; settings: 30 mg/kg; for Average Tumor Volume D0: D0, in mm³; for Average Tumor Volume D21: D21, in mm³
Procedure: COLO205 cells were cultured with RPMI-1640 medium containing 10% fetal bovine serum (FBS) at 37° C. in 5% CO2 incubator. Logarithmic growth phase cells were collected. COLO205 cells (5×10^6 in 200 μL PBS) were implanted subcutaneously into the left flank region, and tumor growth was monitored. Tumor volume (V) was estimated from the length (l) and width (w) of the tumor using the following formula: V=1/2×l×w^2. Treatment started when average tumor size was 100-150 mm^3. Measuring subcutaneous tumor volume 2 to 3 times every week. Drug efficacy was assessed as Tumor Growth Inhibition (TGI) and Tumor increment rate T/C (%). TGI was defined as (1−T/C)×100%, wherein T/C (%) presented the ratio of the change in mean tumor volume of the treated group and of the control group.

BE(2)-C cell = test: Cell proliferation assay (MTS) in BE(2)-C cells; type: cell-based; settings: Homo sapiens, inhibition of BE(2)-C cell proliferation, 48 h
Summary of the method: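 BE(2)-C cells (3000/well, DMEM + 10% FBS) were treated for 48 h at 37 °C with compound at 1.5–10000 nM in nine concentrations. Viability was measured by MTS (2 h, stopped with SDS) at 490/650 nm, and IC50 was calculated from the dose-response.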

CDK4/cyclin D1 = molecular target: T1, CDK4/cyclin D1 (Homo sapiens, UniProt P11802); test: CDK kinase inhibition assay (33P-ATP HotSpot filter binding); type: biochemical; settings: substrate RB Protein, 10 μM ATP
T1 construct: purchased Invitrogen PV4436
Procedure: (§1) Testing compounds were dissolved in 100% DMSO to specific concentration. Compounds were tested in 10-dose mode with 3-fold serial dilution starting at 100 μM. The serial dilution was conducted by epMotion 5070 in DMSO.
(§2) Each substrate was prepared in freshly prepared Reaction Buffer (20 mM Hepes (pH 7.5), 10 mM MgCl2, 1 mM EGTA, 0.02% Brij35, 0.02 mg/ml BSA, 0.1 mM Na3VO4, 2 mM DTT, 1% DMSO). Each kinase was delivered into the substrate solution and the solution was gently mixed. 0.05 μL Compounds were delivered into 5 μL kinase reaction mixture in a 384 well plate by Acoustic technology (Echo550; nanoliter range), and the mixture was incubated for 20 min at room temperature. 0.01 μL of 5 mM ATP with ^33P-ATP (PerkinElmer, Cat# NEG602H001MC, Specific activity […]) was delivered into the reaction mixture to initiate the reaction, and the final concentration of ATP in the mixture was 10 μM. The resulted solutions were incubated for 2 hours at room temperature, the radioactivity incorporated is determined by the proprietary “HotSpot” platform, which is a miniaturized filter-binding method (using this paper as reference: Anastassiadis et al, 2011 Nature Biotech) IC50 value of each compound was generated using GraphPad Prism software.
(§3) Select compounds prepared as described above were assayed according to the biological procedures described herein.

CDK2/cyclin A = molecular target: T2, CDK2/cyclin A (Homo sapiens, UniProt P24941); test: as above; type: biochemical; settings: substrate Histone H1, 10 μM ATP
T2 construct: purchased Invitrogen PR4448B
Procedure: as §1, §2, §3

CDK6/cyclin D1 = molecular target: T3, CDK6/cyclin D1 (Homo sapiens, UniProt Q00534); test: as above; type: biochemical; settings: substrate RB Protein, 10 μM ATP
T3 construct: purchased Invitrogen PR8422B
Procedure: as §1, §2, §3

CDK1/cyclin B = molecular target: T4, CDK1/cyclin B (Homo sapiens, UniProt P06493); test: as above; type: biochemical; settings: substrate Histone H1, 10 μM ATP
T4 construct: purchased Invitrogen PR4768C
Procedure: as §1, §2, §3

T1 sequence (P11802 whole entry): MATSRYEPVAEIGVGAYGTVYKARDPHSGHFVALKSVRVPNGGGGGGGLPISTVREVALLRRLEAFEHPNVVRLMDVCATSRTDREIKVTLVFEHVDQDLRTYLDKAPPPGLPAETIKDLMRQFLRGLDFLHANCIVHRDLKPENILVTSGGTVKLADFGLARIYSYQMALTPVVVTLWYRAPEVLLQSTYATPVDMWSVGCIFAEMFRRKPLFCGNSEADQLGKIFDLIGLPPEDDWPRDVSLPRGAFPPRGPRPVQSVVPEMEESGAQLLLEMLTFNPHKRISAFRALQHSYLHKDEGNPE
T1 sequence (P24385 whole entry partner): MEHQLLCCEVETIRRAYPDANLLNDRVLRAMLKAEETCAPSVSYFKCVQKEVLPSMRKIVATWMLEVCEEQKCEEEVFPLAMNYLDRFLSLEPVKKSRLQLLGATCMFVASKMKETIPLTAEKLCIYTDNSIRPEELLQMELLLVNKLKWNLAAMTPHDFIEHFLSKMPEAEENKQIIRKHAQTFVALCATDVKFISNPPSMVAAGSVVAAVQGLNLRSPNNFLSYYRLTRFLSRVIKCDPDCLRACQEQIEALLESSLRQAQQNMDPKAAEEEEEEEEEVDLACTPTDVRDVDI
T3 sequence (Q00534 whole entry): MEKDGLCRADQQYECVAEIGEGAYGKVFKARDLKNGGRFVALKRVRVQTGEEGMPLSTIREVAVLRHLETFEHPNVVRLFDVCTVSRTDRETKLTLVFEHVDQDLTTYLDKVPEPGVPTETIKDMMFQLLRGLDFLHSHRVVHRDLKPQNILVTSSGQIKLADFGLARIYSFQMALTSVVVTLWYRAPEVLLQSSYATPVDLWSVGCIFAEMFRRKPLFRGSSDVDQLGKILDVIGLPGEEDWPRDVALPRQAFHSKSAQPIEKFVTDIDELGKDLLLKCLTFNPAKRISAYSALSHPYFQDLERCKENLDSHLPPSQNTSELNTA
T3 sequence (P24385 whole entry partner): as the sequence (P24385 whole entry partner) above
T4 sequence (P06493 whole entry): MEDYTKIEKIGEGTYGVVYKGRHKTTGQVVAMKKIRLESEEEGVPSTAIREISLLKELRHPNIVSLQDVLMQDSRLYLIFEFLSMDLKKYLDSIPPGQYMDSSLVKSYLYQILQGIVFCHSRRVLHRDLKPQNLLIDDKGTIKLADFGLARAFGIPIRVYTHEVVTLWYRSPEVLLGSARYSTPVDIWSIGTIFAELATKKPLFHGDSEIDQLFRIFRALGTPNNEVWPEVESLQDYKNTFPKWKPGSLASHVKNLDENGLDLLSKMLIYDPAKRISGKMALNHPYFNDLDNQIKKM
T4 sequence (P14635 whole entry partner): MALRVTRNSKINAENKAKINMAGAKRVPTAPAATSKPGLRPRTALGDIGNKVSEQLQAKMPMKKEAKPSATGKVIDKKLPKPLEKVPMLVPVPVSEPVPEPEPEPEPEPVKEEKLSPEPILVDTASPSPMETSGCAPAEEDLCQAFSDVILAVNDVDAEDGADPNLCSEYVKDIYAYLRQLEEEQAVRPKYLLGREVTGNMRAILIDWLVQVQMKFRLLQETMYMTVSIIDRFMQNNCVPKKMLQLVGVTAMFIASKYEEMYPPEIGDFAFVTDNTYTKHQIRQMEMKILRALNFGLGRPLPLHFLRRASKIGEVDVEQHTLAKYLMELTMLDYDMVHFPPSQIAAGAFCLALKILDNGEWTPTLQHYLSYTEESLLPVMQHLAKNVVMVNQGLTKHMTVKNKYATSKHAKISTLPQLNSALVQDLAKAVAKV

CN1CCN(Cc2ccc(Nc3ncc(F)c(-c4cc(F)c5nc6n(c5c4)[C@H](C(F)F)CC6)n3)nc2)CC1 [Example 11, (S)-4-(1-(difluoromethyl)-5-fluoro-2,3-dihydro-1H-benzo[d]pyrrolo[1,2-a]imidazol-7-yl)-5-fluoro-N-(5-((4-methylpiperazin-1-yl)methyl)pyridin-2-yl)pyrimidin-2-amine]
Average Tumor Volume D0 (COLO205 xenograft tumors): 110 ± 3.2
T/C % D21 (COLO205 xenograft tumors): 28%
TGI % D21 (COLO205 xenograft tumors): 72%
Average Tumor Volume D21 (COLO205 xenograft tumors): 570 ± 57
IC50 (BE(2)-C cell): 10 to 100 nM

CCN1CCN(Cc2ccc(Nc3ncc(F)c(-c4cc(F)c5nc6n(c5c4)[C@H](C(F)F)CC6)n3)nc2)CC1 [Example 12, (S)-4-(1-(difluoromethyl)-5-fluoro-2,3-dihydro-1H-benzo[d]pyrrolo[1,2-a]imidazol-7-yl)-N-(5-((4-ethylpiperazin-1-yl)methyl)pyridin-2-yl)-5-fluoropyrimidin-2-amine]
Average Tumor Volume D0 (COLO205 xenograft tumors): 113 ± 3.4
T/C % D21 (COLO205 xenograft tumors): 29%
TGI % D21 (COLO205 xenograft tumors): 71%
Average Tumor Volume D21 (COLO205 xenograft tumors): 584 ± 86
IC50 (BE(2)-C cell): 10 to 100 nM
IC50 (CDK4/cyclin D1): < 5 nM
IC50 (CDK2/cyclin A): 50.5 nM
IC50 (CDK6/cyclin D1): < 5 nM
IC50 (CDK1/cyclin B): 403 nM

CN1CCN(c2ccc(Nc3ncc(F)c(-c4cc(F)c5nc6n(c5c4)[C@H](C(F)F)CC6)n3)nc2)CC1 [Example 39, (S)-4-(1-(difluoromethyl)-5-fluoro-2,3-dihydro-1H-benzo[d]pyrrolo[1,2-a]imidazol-7-yl)-5-fluoro-N-(5-(4-methylpiperazin-1-yl)pyridin-2-yl)pyrimidin-2-amine]
IC50 (BE(2)-C cell): > 100 nM
IC50 (CDK4/cyclin D1): < 5 nM
IC50 (CDK2/cyclin A): 19.2 nM
IC50 (CDK6/cyclin D1): < 5 nM
IC50 (CDK1/cyclin B): 50.5 nM

CN1CCN(Cc2cnc(Nc3cc(-c4cc(F)c5nc6n(c5c4)C(C)(C)CC6)c(F)cn3)nc2)CC1 [Example 165, N-(5-fluoro-4-(5-fluoro-1,1-dimethyl-2,3-dihydro-1H-benzo[d]pyrrolo[1,2-a]imidazol-7-yl)pyridin-2-yl)-5-((4-methylpiperazin-1-yl)methyl)pyrimidin-2-amine]
IC50 (BE(2)-C cell): > 100 nM

CCN1CCN(Cc2cnc(Nc3cc(-c4cc(F)c5nc6n(c5c4)C(C)(C)CC6)c(F)cn3)nc2)CC1 [Example 166, 5-((4-ethylpiperazin-1-yl)methyl)-N-(5-fluoro-4-(5-fluoro-1,1-dimethyl-2,3-dihydro-1H-benzo[d]pyrrolo[1,2-a]imidazol-7-yl)pyridin-2-yl)pyrimidin-2-amine]
IC50 (BE(2)-C cell): > 100 nM

CC1(C)CCc2nc3ncc(-c4cc(Nc5ccc(CN6C7CCC6CNC7)cn5)ncc4F)cc3n21 [Example 167, N-(5-((3,8-diazabicyclo[3,2,1]octan-8-yl)methyl)pyridin-2-yl)-4-(6,6-dimethyl-7,8-dihydro-6H-pyrrolo[1′,2′:1,2]imidazo[4,5-b]pyridin-3-yl)-5-fluoropyridin-2-amine]
IC50 (BE(2)-C cell): 10 to 100 nM

CN1CC2CCC(C1)N2Cc1ccc(Nc2cc(-c3cnc4nc5n(c4c3)C(C)(C)CC5)c(F)cn2)nc1 [Example 168, 4-(6,6-dimethyl-7,8-dihydro-6H-pyrrolo[1′,2′:1,2]imidazo[4,5-b]pyridin-3-yl)-5-fluoro-N-(5-((3-methyl-3,8-diazabicyclo[3.2.1]octan-8-yl)methyl)pyridin-2-yl)pyridin-2-amine]
IC50 (BE(2)-C cell): > 100 nM

CCN1CC2CCC(C1)N2Cc1ccc(Nc2cc(-c3cnc4nc5n(c4c3)C(C)(C)CC5)c(F)cn2)nc1 [Example 169, 4-(6,6-dimethyl-7,8-dihydro-6H-pyrrolo[1′,2′:1,2]imidazo[4,5-b]pyridin-3-yl)-N-(5-((3-ethyl-3,8-diazabicyclo[3.2.1]octan-8-yl)methyl)pyridin-2-yl)-5-fluoropyridin-2-amine]
IC50 (BE(2)-C cell): > 100 nM

Source: patent publication US10450316B2, “Certain protein kinase inhibitor” (Chongqing Fochon Pharmaceutical Co., Ltd., priority 2015, dated 2019)
